≈ marks a conversion by molar mass, not a printed value. Like-named read-outs stand apart in the source and are kept apart here.
Tests used:
[1] = tested on: Acinetobacter baumannii NCTC 13420; experiment: MIC, broth microdilution (CLSI); assay type: cell-based; conditions: A. baumannii NCTC 13420, 16-20 h, mode of three experiments
[2] = tested on: Enterobacter cloacae NCTC 13406; experiment: MIC, broth microdilution (CLSI); assay type: cell-based; conditions: E. cloacae NCTC 13406, 16-20 h, mode of three experiments
[3] = tested on: Escherichia coli ATCC 25922; experiment: MIC, broth microdilution (CLSI); assay type: cell-based; conditions: E. coli ATCC 25922, 16-20 h, mode of three experiments
[4] = tested on: Klebsiella pneumoniae ATCC 700603; experiment: MIC, broth microdilution (CLSI); assay type: cell-based; conditions: K. pneumoniae ATCC 700603, 16-20 h, mode of three experiments
[5] = tested on: Pseudomonas aeruginosa ATCC 27853; experiment: MIC, broth microdilution (CLSI); assay type: cell-based; conditions: P. aeruginosa ATCC 27853, 16-20 h, mode of three experiments
[6] = tested on: Staphylococcus aureus ATCC 29213; experiment: MIC, broth microdilution (CLSI); assay type: cell-based; conditions: S. aureus ATCC 29213, 16-20 h, mode of three experiments
HepG2 ATCC HB-8065 = experiment: Human cell viability assay (CellTiter-Glo); assay type: cell-based; conditions: for IC50: Homo sapiens
Procedure: Compounds are assessed for potential non-specific cytotoxic effects against a human hepatic cell line (HepG2 ATCC HB-8065). HepG2 cells are seeded at 20,000 cells/well in 96-well microtitre plates in minimal essential medium (MEM) supplemented with a final concentration of 10% FBS and 1 mM sodium pyruvate. After 24 h compound dilutions are prepared in Dulbecco's minimum essential media (DMEM) supplemented with final concentrations of 0.001% FBS, 0.3% bovine albumin and 0.02% HEPES and added to cells. Compounds are tested in two-fold serial dilutions over a final concentration range of 1-128 μg/mL in a final DMSO concentration of 1% vol/vol. Chlorpromazine is used as a positive control. Cells are incubated with compound at 37° C. and 5% CO2 for a further 24 h, after which time the CellTiter-Glo reagent (Promega) is added. Luminescence is measured on a BMG Omega plate reader. Data are analysed using GraphPad Prism software to determine the concentration of compound that inhibits cell viability by fifty percent (IC50).

[7] = tested on: Haemophilus influenzae ATCC 49247; experiment: MIC, broth microdilution (CLSI); assay type: cell-based; conditions: H. influenzae ATCC 49247, 16-20 h, mode of three experiments
[8] = tested on: Streptococcus pneumoniae ATCC 49619; experiment: MIC, broth microdilution (CLSI); assay type: cell-based; conditions: S. pneumoniae ATCC 49619, 16-20 h, mode of three experiments
[9] = tested on: Acinetobacter baumannii ATCC 19606; experiment: MIC, broth microdilution (CLSI); assay type: cell-based; conditions: A. baumannii ATCC 19606, 16-20 h, mode of three experiments
E. coli ATCC BAA-2452 = experiment: MIC, broth microdilution (CLSI); assay type: cell-based, Escherichia coli; conditions: 16-20 h, mode of three experiments
E. coli NCTC 13476 = experiment: MIC, broth microdilution (CLSI); assay type: cell-based, Escherichia coli; conditions: mode of three experiments
E. coli MG1655 WT = experiment: MIC, broth microdilution (CLSI); assay type: cell-based, Escherichia coli; conditions: E. coli MG1655 WT; 16-20 h; mode of three experiments
E. coli MG1655 S83L = assay type: cell-based, Escherichia coli; conditions: compared to the isogenic parent strain E. coli MG1655; S83L mutation on DNA gyrase subunit GyrA
E. coli MG1655 D87G = assay type: cell-based, Escherichia coli; conditions: compared to the isogenic parent strain E. coli MG1655; D87G mutation on DNA gyrase subunit GyrA
[10] = Acinetobacter baumannii, NCTC13420, read-out: MIC
[11] = Enterobacter cloacae, NCTC13406, read-out: MIC
[12] = Escherichia coli, ATCC25922, read-out: MIC
[13] = Klebsiella pneumoniae, ATCC700603, read-out: MIC
[14] = Pseudomonas aeruginosa, ATCC27853, read-out: MIC
[15] = Staphylococcus aureus, ATCC29213, read-out: MIC
[16] = HepG2 cell viability, 24 h with compound, range 1-128 μg/mL
[17] = Haemophilus influenzae, ATCC49247, read-out: MIC
[18] = Streptococcus pneumoniae, ATCC49619, read-out: MIC
[19] = Acinetobacter baumannii, ATCC19606, read-out: MIC

Structure (SMILES) | MIC [1, 10] [µg/mL] | MIC [2, 11] [µg/mL] | MIC [3, 12] [µg/mL] | MIC [4, 13] [µg/mL] | MIC [5, 14] [µg/mL] | MIC [6, 15] [µg/mL] | IC50 (HepG2 ATCC HB-8065; [16]) [µg/mL] | MIC [7, 17] [µg/mL] | MIC [8, 18] [µg/mL] | Fold increase in MIC against E. coli MG1655 S83L (E. coli MG1655 S83L) [fold] | Fold increase in MIC against E. coli MG1655 D87G (E. coli MG1655 D87G) [fold] | other results
N#Cc1ccc2ccc(=O)n(CCN3C[C@H]4CN(c5ccc6c(n5)NC(=O)CO6)C(=O)O[C@H]4C3)c2c1 (relative stereo) [Compound 10, rel-1-{2-[(4aS*,7aR*-2-oxo-3-{3-oxo-2H,3H,4H-pyrido[3,2-b][1,4]oxazin-6-yl}-octahydropyrrolo[3,4-e][1,3]oxazin-6-yl]ethyl}-2-oxo-1,2-dihydroquinoline-7-carbonitrile] | – | – | – | – | – | – | – | – | – | 1 | 1 | MIC [1]: B (a MIC of from 1 to 10 is assigned the letter B); MIC [9]: A (an MIC (in μg/mL) of less or equal to 1 is assigned the letter A); MIC [2]: A (an MIC (in μg/mL) of less or equal to 1 is assigned the letter A); MIC [3]: A (an MIC (in μg/mL) of less or equal to 1 is assigned the letter A); MIC (E. coli ATCC BAA-2452): A (an MIC (in μg/mL) of less or equal to 1 is assigned the letter A); MIC (E. coli NCTC 13476; 16-20 h): B (a MIC of from 1 to 10 is assigned the letter B); MIC (E. coli MG1655 WT): A (an MIC (in μg/mL) of less or equal to 1 is assigned the letter A); MIC [7]: A (an MIC (in μg/mL) of less or equal to 1 is assigned the letter A); MIC [4]: B (a MIC of from 1 to 10 is assigned the letter B); MIC [5]: B (a MIC of from 1 to 10 is assigned the letter B); MIC [6]: A (an MIC (in μg/mL) of less or equal to 1 is assigned the letter A); MIC [8]: A (an MIC (in μg/mL) of less or equal to 1 is assigned the letter A); toxicity against HepG2 human hepatic cell line (in words) (HepG2 ATCC HB-8065): no detectable toxicity; IC50 HepG2 (HepG2 ATCC HB-8065; [16]): A (an IC50 of over 100 is assigned the letter A)
N#Cc1ccc2ccc(=O)n(CCCN3C[C@H]4CN(c5ccc6c(n5)NC(=O)CO6)C(=O)O[C@@H]4C3)c2c1 (relative stereo) [Compound 14, rel-1-{3-[(4aS*,7aR*)-2-oxo-3-{3-oxo-2H,3H,4H-pyrido[3,2-b]1,4]oxazin-6-yl}-octahydropyrrolo[3,4-e][1,3]oxazin-6-yl]propyl}-2-oxo-1,2-dihydroquinoline-7-carbonitrile] | < 1 | 1 to 10 (≈ 2 to 20 µM) | < 1 | 1 to 10 (≈ 2 to 20 µM) | 1 to 10 (≈ 2 to 20 µM) | < 1 | 10 to 100 (≈ 20 to 200 µM) | < 1 | < 1 | 4 | 2 | MIC [9, 19]: 1 to 10 µg/mL (≈ 2 to 20 µM); MIC (E. coli ATCC BAA-2452; Escherichia coli, read-out: MIC): < 1 µg/mL; MIC (E. coli NCTC 13476; Escherichia coli, NCTC13476, 16-20 h, read-out: MIC): 1 to 10 µg/mL (≈ 2 to 20 µM); toxicity against HepG2 human hepatic cell line (in words) (HepG2 ATCC HB-8065; summary of Table 3): acceptable level of hepatic toxicity
COc1ncc2ccc(=O)n(CCCN3CC4CN(c5ccc6c(n5)NC(=O)CO6)C(=O)OC4C3)c2n1 (stereo not drawn) [Compound 11, rel-(4aS*,7aR*)-6-(3-{2-methoxy-7-oxo-7H,8H-pyrido[2,3-d]pyrimidin-8-yl}propyl)-3-{3-oxo-2H,3H,4H-pyrido[3,2-b][1,4]oxazin-6-yl}-octahydropyrrolo[3,4-e][1,3]oxazin-2-one] | 10 to 100 (≈ 19.7 to 197 µM) | 1 to 10 (≈ 1.97 to 19.7 µM) | 1 to 10 (≈ 1.97 to 19.7 µM) | 10 to 100 (≈ 19.7 to 197 µM) | 10 to 100 (≈ 19.7 to 197 µM) | < 1 | 10 to 100 (≈ 19.7 to 197 µM) | < 1 | < 1 | – | – | toxicity against HepG2 human hepatic cell line (in words) (HepG2 ATCC HB-8065; summary of Table 3): acceptable level of hepatic toxicity
C[C@H]1COc2c(N3CCN(C)CC3)c(F)cc3c(=O)c(C(=O)O)cn1c23 [LEV, levofloxacin, reference compound] | – | – | – | – | – | – | – | – | – | 8 | 8 | –

Continued, in another order:

MIC [1, 10] [µg/mL] | MIC [2, 11] [µg/mL] | MIC [3, 12] [µg/mL] | MIC [4, 13] [µg/mL] | MIC [5, 14] [µg/mL] | MIC [6, 15] [µg/mL] | IC50 (HepG2 ATCC HB-8065; [16]) [µg/mL] | MIC [7, 17] [µg/mL] | MIC [8, 18] [µg/mL] | Structure (SMILES) | Fold increase in MIC against E. coli MG1655 S83L (E. coli MG1655 S83L) [fold] | Fold increase in MIC against E. coli MG1655 D87G (E. coli MG1655 D87G) [fold] | other results
< 1 | < 1 | < 1 | 1 to 10 (≈ 2.1 to 21 µM) | 1 to 10 (≈ 2.1 to 21 µM) | < 1 | > 100 | – | – | O=C1COc2ccc(N3C[C@@H]4CN(CCCn5c(=O)ccc6ccccc65)C[C@@H]4OC3=O)nc2N1 (relative stereo) [Compound 4, rel-1-{3-[(4aS*,7aR*)-2-oxo-3-{3-oxo-2H,3H,4H-pyrido[3,2-b][1,4]oxazin-6-yl}-octahydropyrrolo[3,4-e][1,3]oxazin-6-yl]propyl}-1,2-dihydroquinolin-2-one] | – | – | –
> 100 | 10 to 100 (≈ 19.1 to 191 µM) | 10 to 100 (≈ 19.1 to 191 µM) | > 100 | 10 to 100 (≈ 19.1 to 191 µM) | < 1 | > 100 | 1 to 10 (≈ 1.91 to 19.1 µM) | 1 to 10 (≈ 1.91 to 19.1 µM) | O=C1COc2ccc(N3C[C@H]4CN(CCn5c(=O)ccc6ccc(OCCO)nc65)C[C@@H]4OC3=O)nc2N1 (relative stereo) [Compound 5] | – | – | –
> 100 | > 100 | 10 to 100 (≈ 18.7 to 187 µM) | > 100 | 10 to 100 (≈ 18.7 to 187 µM) | 1 to 10 (≈ 1.87 to 18.7 µM) | > 100 | > 100 | 1 to 10 (≈ 1.87 to 18.7 µM) | NCCCOc1ccc2ccc(=O)n(CCN3C[C@@H]4CN(c5ccc6c(n5)NC(=O)CO6)C(=O)O[C@H]4C3)c2n1 (relative stereo) [Compound 8] | – | – | –
10 to 100 (≈ 20.3 to 203 µM) | 10 to 100 (≈ 20.3 to 203 µM) | – | 10 to 100 (≈ 20.3 to 203 µM) | 10 to 100 (≈ 20.3 to 203 µM) | < 1 | 1 to 10 (≈ 2.03 to 20.3 µM) | 1 to 10 (≈ 2.03 to 20.3 µM) | 1 to 10 (≈ 2.03 to 20.3 µM) | COc1ncc2ccc(=O)n(CCN3C[C@H]4CN(c5ccc6c(n5)NC(=O)CO6)C(=O)O[C@@H]4C3)c2n1 (relative stereo) [Compound 13, rel-(4aS*,7aR*-6-(2-{2-methoxy-7-oxo-7H,8H-pyrido[2,3-d]pyrimidin-8-yl}ethyl)-3-{3-oxo-2H,3H,4H-pyrido[3,2-b][1,4]oxazin-6-yl}-octahydropyrrolo[3,4-e][1,3]oxazin-2-one] | – | – | –
> 100 | > 100 | 1 to 10 (≈ 1.82 to 18.2 µM) | > 100 | 10 to 100 (≈ 18.2 to 182 µM) | 1 to 10 (≈ 1.82 to 18.2 µM) | > 100 | > 100 | 1 to 10 (≈ 1.82 to 18.2 µM) | NCCCOc1ccc2ccc(=O)n(CCCN3CC4CN(c5ccc6c(n5)NC(=O)CO6)C(=O)OC4C3)c2n1 (stereo not drawn) [Compound 6, rel-1-{3-[(4aS*,7aR*)-2-oxo-3-{3-oxo-2H,3H,4H-pyrido[3,2-b][1,4]oxazin-6-yl}-octahydropyrrolo[3,4-e][1,3]oxazin-6-yl]propyl}-7-(3-aminopropoxy)-1,2-dihydro-1,8-naphthyridin-2-one] | – | – | –
< 1 | 1 to 10 (≈ 2.03 to 20.3 µM) | < 1 | 10 to 100 (≈ 20.3 to 203 µM) | 10 to 100 (≈ 20.3 to 203 µM) | < 1 | > 100 | < 1 | < 1 | COc1ccc2ccc(=O)n(CCN3CC4CN(c5ccc6c(n5)NC(=O)CO6)C(=O)OC4C3)c2n1 (stereo not drawn) [Compound 16, rel-1-{2-[(4aR*,7aR*)-2-oxo-3-{3-oxo-2H,3H,4H-pyrido[3,2-b][1,4]oxazin-6-yl}-octahydropyrrolo[3,4-e][1,3]oxazin-6-yl]ethyl}-7-methoxy-1,2-dihydro-1,8-naphthyridin-2-one] | – | – | MIC [9, 19]: < 1 µg/mL

Reference: patent US20210179636A1, “ANTIBACTERIAL COMPOUNDS” (priority 2016, published 2021)
